Values joined by “and” are separate entries in the source; they are usually repeats but may differ in a detail not shown here. Equal entries are not always repeated. Structures can show the parent of a compound that is named as a salt. Active and inactive are the calls of the source.
Assays:
[1] = Luminescence Cell-Based Dose Confirmation HTS to Identify Activators of 5'UTR Stem-Loop Driven Alpha-Synuclein mRNA Translation in H4 Neuroglioblastoma Cells. [Related pubchem assays: 1829 (Project Summary), 1814 (Primary HTS)]; type: functional
[2] = HEK-293T viability loss, compound-treated – cell-based, uHTS hits, cytotoxicity control for B/T-cell NF-kB inhibitor project, dose response (AID 489019); type: functional;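 further: IC50 reflects cytotoxicity as loss of cell viability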
HEK293 = assay: membrane integrity loss in HEK cells – cell-based, fluorescence, cytotoxicity control for IDE activator project, dose response (AID 588440); type: functional; conditions: Homo sapiens;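 further: cytotoxicity by LDH release measuring loss of membrane integrity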
CAAX prenyl protease 2 = CAAX prenyl protease 2 (Saccharomyces cerevisiae S288c, UniProt Q03530); type: biochemical
Streptokinase A = target: T1, Streptokinase A (Streptococcus pyogenes serotype M1, UniProt P10520); assay: viability-normalized secreted streptokinase activity reduction – plasminogen activation absorbance, OD405, dose response (AID 1914); type: functional, Streptococcus pyogenes M1 GAS;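 further: secreted streptokinase activity via plasminogen activation per viability signal from cell pellet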
T1 sequence (P10520 whole entry): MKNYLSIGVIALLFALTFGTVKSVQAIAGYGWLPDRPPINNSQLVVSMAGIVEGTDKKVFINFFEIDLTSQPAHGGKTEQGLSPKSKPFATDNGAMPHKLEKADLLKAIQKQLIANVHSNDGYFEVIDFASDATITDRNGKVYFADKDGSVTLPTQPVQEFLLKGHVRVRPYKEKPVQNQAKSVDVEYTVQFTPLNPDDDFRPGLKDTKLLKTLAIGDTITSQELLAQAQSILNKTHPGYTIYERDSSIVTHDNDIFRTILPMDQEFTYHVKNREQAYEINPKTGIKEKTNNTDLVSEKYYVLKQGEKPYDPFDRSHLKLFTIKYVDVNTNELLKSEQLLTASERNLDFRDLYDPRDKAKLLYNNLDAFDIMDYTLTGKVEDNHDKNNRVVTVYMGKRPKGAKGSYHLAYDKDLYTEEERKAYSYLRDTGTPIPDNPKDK

14-3-3 protein gamma = 14-3-3 protein gamma (Homo sapiens, UniProt P61981); assay: modulators of 14-3-3 gamma client binding – dose response (AID 711); type: functional
Chain of 14-3-3 protein gamma (P61981 whole entry, the tested form may be a part): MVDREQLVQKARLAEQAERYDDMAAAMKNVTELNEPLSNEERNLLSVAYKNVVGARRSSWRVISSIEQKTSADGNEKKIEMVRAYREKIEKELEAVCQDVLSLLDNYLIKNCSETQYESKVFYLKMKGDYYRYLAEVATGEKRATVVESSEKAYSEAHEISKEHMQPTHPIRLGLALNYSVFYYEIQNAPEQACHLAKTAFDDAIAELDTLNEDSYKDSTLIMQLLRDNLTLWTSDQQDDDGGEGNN

[3] = target: T2, RNA-binding protein pos-1 (Caenorhabditis elegans, UniProt G5EF15); assay: disruptors of C. elegans POS-1 RNA interaction – biochemical, fluorescence polarization, dose response (AID 1964);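 further: purified POS-1 fused to maltose binding protein made in E. coli; potency of compounds blocking POS-1 binding to fluorescent RNA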
T2 sequence (G5EF15 whole entry): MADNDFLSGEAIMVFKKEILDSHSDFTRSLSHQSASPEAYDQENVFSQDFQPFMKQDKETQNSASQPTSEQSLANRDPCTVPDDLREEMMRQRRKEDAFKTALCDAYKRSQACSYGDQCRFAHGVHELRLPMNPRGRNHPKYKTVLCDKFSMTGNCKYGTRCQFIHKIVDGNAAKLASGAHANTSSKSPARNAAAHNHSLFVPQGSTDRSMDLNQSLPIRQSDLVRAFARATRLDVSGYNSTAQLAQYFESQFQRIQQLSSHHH

Bcl-2-like protein 1 = Bcl-2-like protein 1 (Homo sapiens, UniProt Q07817); assay: blockers of BCLXL peptide binding – biochemical, fluorescence polarization, 1536-well, selectivity assay for MCL1 inhibitor project, dose response (AID 2218)
Chain of Bcl-2-like protein 1 (Q07817 whole entry): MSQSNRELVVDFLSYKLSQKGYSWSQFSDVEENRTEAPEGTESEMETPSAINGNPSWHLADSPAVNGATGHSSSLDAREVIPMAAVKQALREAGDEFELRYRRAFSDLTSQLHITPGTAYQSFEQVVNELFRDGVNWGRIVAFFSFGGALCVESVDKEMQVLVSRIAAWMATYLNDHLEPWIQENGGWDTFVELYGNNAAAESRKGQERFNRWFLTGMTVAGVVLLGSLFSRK

[4] = target: Serine/threonine-protein kinase PLK1 (Homo sapiens, UniProt P53350); type: functional;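 further: PLK1 measured as one member of a kinome-wide profiling panel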
[5] = target: Tyrosine-protein kinase JAK2 (Homo sapiens, UniProt O60674); type: functional;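 further: JAK2 tested as one member of a kinase panel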
[6] = target: Protein kinase C gamma type (Homo sapiens, UniProt P05129); type: functional
[7] = target: Dual specificity tyrosine-phosphorylation-regulated kinase 1A (Homo sapiens, UniProt Q13627); type: functional;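 further: measured against DYRK1A as one member of a broad kinome profiling panel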
[8] = target: Serine/threonine-protein kinase PLK3 (Homo sapiens, UniProt Q9H4B4); type: functional
[9] = target: Homeodomain-interacting protein kinase 2 (Homo sapiens, UniProt Q9H2X6); type: functional;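 further: measured within a kinome-wide kinase profiling panel, HIPK2 being one panel member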
[10] = target: Vascular endothelial growth factor receptor 1 (Homo sapiens, UniProt P17948); type: functional;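 further: measured within a kinome-wide profiling panel, FLT1 as the panel member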
[11] = target: Tyrosine-protein kinase JAK3 (Homo sapiens, UniProt P52333); type: functional
Chain of Tyrosine-protein kinase JAK3 (P52333 whole entry): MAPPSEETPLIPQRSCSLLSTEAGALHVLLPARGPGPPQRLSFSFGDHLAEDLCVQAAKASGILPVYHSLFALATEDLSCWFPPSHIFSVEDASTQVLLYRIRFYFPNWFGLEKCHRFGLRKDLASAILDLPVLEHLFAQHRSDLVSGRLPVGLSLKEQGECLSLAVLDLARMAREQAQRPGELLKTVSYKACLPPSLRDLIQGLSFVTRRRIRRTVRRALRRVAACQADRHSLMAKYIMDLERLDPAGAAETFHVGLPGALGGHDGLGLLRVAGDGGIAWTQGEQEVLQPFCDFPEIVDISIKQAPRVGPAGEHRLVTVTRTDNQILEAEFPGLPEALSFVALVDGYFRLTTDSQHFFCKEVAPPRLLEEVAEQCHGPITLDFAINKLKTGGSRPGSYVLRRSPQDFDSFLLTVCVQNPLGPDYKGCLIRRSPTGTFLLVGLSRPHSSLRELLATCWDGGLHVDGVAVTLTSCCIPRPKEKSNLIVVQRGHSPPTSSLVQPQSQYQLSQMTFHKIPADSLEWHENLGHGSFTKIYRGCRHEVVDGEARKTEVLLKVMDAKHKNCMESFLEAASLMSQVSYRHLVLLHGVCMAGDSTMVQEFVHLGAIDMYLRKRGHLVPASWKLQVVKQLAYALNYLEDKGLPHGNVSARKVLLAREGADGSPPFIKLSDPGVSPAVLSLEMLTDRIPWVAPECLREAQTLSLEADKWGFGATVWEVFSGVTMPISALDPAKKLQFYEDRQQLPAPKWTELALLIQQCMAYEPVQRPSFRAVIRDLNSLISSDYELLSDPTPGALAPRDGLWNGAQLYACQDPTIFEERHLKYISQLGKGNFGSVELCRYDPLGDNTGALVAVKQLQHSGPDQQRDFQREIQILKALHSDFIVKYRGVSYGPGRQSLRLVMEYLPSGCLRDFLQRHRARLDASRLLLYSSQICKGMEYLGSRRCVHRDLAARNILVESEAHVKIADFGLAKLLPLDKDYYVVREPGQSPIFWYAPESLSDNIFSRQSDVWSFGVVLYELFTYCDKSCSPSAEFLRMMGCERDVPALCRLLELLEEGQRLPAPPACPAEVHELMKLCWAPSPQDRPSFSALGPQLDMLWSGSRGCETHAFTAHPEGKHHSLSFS

[12] = target: Calcium/calmodulin-dependent protein kinase type 1 (Homo sapiens, UniProt Q14012); type: functional
Chain of Calcium/calmodulin-dependent protein kinase type 1 (Q14012 whole entry): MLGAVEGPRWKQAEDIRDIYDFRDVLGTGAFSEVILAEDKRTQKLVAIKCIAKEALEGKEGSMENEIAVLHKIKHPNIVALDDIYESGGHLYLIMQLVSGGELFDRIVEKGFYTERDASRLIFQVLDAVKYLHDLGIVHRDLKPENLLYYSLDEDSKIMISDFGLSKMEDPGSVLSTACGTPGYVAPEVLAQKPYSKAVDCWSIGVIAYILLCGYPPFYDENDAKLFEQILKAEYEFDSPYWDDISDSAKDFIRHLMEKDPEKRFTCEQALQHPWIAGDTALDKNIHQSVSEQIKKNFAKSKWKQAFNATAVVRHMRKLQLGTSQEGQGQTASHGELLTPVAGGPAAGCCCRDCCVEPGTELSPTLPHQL

Activin receptor type-1 = Activin receptor type-1 (Homo sapiens, UniProt Q04771); assay: Navigating the Kinome. Panel member name: ACVR1; type: functional
Chain of Activin receptor type-1 (Q04771 whole entry): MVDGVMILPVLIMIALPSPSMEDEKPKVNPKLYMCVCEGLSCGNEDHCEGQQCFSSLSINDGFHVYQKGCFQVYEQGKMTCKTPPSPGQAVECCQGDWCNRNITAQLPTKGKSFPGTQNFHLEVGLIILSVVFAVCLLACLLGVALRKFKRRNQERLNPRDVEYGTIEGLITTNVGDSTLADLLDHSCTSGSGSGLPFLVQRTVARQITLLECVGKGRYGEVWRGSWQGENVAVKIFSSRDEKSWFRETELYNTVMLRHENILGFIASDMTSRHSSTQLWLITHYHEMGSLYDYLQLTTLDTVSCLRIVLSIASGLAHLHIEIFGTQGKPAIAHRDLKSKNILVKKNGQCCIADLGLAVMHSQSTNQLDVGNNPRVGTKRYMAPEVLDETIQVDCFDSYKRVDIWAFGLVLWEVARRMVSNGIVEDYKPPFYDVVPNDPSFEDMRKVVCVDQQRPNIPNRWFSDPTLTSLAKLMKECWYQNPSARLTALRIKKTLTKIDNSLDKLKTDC

[13] = target: Mitogen-activated protein kinase 9 (Homo sapiens, UniProt P45984); type: functional;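 further: value from a kinome panel profiling assay, MAPK9 panel entry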
[14] = target: 3-phosphoinositide-dependent protein kinase 1 (Homo sapiens, UniProt O15530); type: functional;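 further: value comes from the Navigating the Kinome panel, PDPK1 member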
Chain of 3-phosphoinositide-dependent protein kinase 1 (O15530 whole entry): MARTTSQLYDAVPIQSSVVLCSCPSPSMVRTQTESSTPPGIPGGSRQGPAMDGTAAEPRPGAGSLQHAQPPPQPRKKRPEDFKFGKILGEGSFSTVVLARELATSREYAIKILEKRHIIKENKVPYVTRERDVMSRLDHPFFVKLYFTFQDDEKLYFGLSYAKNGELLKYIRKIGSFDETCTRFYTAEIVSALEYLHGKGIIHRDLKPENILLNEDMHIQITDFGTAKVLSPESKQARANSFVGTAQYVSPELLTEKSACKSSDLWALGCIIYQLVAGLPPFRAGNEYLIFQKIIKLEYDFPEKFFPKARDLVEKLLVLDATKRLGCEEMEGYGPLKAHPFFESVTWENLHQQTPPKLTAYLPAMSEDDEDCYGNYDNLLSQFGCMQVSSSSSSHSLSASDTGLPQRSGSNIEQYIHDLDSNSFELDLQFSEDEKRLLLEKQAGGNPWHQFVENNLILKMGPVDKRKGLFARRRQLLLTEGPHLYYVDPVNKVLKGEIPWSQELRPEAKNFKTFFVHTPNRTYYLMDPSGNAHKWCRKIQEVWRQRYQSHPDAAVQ

[15] = target: Cyclin-dependent kinase 5 (Homo sapiens, UniProt Q00535); type: functional;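 further: CDK5 measured as one member of a kinase profiling panel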
Chain of Cyclin-dependent kinase 5 (Q00535 whole entry): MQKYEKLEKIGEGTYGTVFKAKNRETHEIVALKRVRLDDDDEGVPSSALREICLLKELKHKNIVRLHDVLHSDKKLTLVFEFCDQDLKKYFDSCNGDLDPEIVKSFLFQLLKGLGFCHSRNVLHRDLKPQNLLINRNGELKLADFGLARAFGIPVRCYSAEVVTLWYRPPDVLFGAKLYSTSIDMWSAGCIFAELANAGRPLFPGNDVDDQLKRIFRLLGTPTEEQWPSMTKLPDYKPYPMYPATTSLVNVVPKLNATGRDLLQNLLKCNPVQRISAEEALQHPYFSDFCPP

[16] = target: Dual specificity mitogen-activated protein kinase kinase 1 (Homo sapiens, UniProt Q02750); assay: Navigating the Kinome. Panel member name: MAP2K1; type: functional
[17] = target: Protein kinase C theta type (Homo sapiens, UniProt Q04759); assay: Navigating the Kinome. Panel member name: PRKCQ; type: functional
Chain of Protein kinase C theta type (Q04759 whole entry): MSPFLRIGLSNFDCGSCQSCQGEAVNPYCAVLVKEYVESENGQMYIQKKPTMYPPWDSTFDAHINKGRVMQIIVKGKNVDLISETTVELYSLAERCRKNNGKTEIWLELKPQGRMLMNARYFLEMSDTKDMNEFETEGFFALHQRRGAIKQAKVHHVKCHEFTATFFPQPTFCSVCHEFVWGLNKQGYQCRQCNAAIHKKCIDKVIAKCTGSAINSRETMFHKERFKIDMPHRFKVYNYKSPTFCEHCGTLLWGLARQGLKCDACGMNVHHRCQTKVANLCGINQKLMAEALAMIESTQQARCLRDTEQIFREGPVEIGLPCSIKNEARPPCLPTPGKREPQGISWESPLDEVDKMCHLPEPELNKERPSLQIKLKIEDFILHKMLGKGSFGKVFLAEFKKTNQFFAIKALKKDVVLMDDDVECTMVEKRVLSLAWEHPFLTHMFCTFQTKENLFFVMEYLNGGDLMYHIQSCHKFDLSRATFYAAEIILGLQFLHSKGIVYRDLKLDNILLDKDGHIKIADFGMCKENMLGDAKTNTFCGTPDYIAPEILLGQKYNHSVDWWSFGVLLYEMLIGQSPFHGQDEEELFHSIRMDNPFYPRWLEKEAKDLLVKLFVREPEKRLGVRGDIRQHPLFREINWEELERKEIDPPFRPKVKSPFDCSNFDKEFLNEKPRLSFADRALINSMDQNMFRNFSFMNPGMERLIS

[18] = target: Testis-specific serine/threonine-protein kinase 2 (Homo sapiens, UniProt Q96PF2); type: functional;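 further: part of the Navigating the Kinome panel, target entry STK22B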
[19] = target: Casein kinase I isoform alpha (Homo sapiens, UniProt P48729); type: functional
Aurora kinase B = Aurora kinase B (Homo sapiens, UniProt Q96GD4); type: functional
[20] = target: Mitogen-activated protein kinase kinase kinase kinase 2 (Homo sapiens, UniProt Q12851); type: functional;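 further: measured as one member of a kinome-wide kinase panel, with MAP4K2 as the panel entry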
[21] = target: Serine/threonine-protein kinase PAK 4 (Homo sapiens, UniProt O96013); type: functional;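 further: value obtained within a kinome profiling panel in which PAK4 was one of the panel members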
[22] = target: Rho-associated protein kinase 1 (Homo sapiens, UniProt Q13464); type: functional;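 further: measured within a broad kinome-wide panel profiling many kinases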

## CCN1/C(=C\c2ccc3ccccc3[n+]2CC)Sc2cc(C)ccc21
[1]
  EC50: 15.7 µM (active)
[2]
  IC50: > 80 µM (inactive)

## CCCCCCCCCCOC(=O)C[n+]1c(COc2ccc(C)cc2)n(C)c2ccccc21
HEK293
  IC50: 7.28 µM (active)
CAAX prenyl protease 2
  AC50: 5.51 µM (active)
Streptokinase A
  EC50: > 150 µM (not active)

## CC[C@@H](CO)NC(=O)[C@@H]1C=C2c3cccc4c3c(cn4C)C[C@H]2N(C)C1 [METHYSERGIDE MALEATE]
14-3-3 protein gamma
  IC50: > 50 µM (not active)
[3]
  EC50: 10.3 µM (active) and 14.3 µM (active)
Bcl-2-like protein 1
  IC50: 22.6 µM (not active)

## CN1CCN(c2nc(C3=C(c4c[nH]c5ccccc45)C(=O)NC3=O)c3ccccc3n2)CC1 [SOTRASTAURIN]
[4]
  Ki: 0.0631 µM (active)
[5]
  Ki: > 2.51 µM (inactive)
[6]
  Ki: 0.0126 µM (active)
[7]
  Ki: > 3.98 µM (inactive)
[8]
  Ki: > 7.94 µM (inactive)
[9]
  Ki: > 3.16 µM (inactive)
[10]
  Ki: > 2 µM (inactive)
[11]
  Ki: 0.631 µM (active)
[12]
  Ki: > 6.31 µM (inactive)
Activin receptor type-1
  Ki: > 3.98 µM (inactive)
[13]
  Ki: > 3.98 µM (inactive)
[14]
  Ki: 1.58 µM (active)
[15]
  Ki: 3.16 µM (active)
[16]
  Ki: 3.16 µM (active)
[17]
  Ki: 0.000631 µM (active)
[18]
  Ki: > 1.58 µM (inactive)
[19]
  Ki: > 5.01 µM (inactive)
Aurora kinase B
  Ki: > 5.01 µM (inactive)
[20]
  Ki: > 5.01 µM (inactive)
[21]
  Ki: > 5.01 µM (inactive)
[22]
  Ki: > 2 µM (inactive)
